{
  "source": "patent US20260224588A1",
  "about": "“BENZODIAZEPINONE-DERIVED INHIBITORS OF EGFR AND HER2” (The Research Foundation for the State University of New York, priority 2023, published 2026)",
  "key": {"ABL2": {"target": "T1, ABL2 (Homo sapiens, UniProt P42684)", "T1 construct": "purchased Eurofins DiscoverX Corporation", "assay": "KINOMEscan", "format": "binding", "conditions": "1 μM of compound 4; read-out: POC"}, "CDKL1": {"target": "CDKL1 (Homo sapiens, UniProt Q00532)", "sequence (Q00532 whole entry)": "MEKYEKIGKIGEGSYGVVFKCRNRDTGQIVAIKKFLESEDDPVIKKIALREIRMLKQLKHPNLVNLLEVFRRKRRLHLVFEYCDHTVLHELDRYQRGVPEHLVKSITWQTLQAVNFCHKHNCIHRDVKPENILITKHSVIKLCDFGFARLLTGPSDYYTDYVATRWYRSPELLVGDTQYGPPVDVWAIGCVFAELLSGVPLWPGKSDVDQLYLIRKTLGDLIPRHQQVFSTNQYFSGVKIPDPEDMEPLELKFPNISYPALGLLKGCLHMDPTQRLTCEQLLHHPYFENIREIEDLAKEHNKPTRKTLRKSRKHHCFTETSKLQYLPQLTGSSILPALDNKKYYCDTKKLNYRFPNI", "assay": "KINOMEscan", "format": "binding", "conditions": "1 μM of compound 4; read-out: POC"}, "LZK": {"target": "LZK (Homo sapiens, UniProt O43283)", "sequence (O43283 whole entry)": "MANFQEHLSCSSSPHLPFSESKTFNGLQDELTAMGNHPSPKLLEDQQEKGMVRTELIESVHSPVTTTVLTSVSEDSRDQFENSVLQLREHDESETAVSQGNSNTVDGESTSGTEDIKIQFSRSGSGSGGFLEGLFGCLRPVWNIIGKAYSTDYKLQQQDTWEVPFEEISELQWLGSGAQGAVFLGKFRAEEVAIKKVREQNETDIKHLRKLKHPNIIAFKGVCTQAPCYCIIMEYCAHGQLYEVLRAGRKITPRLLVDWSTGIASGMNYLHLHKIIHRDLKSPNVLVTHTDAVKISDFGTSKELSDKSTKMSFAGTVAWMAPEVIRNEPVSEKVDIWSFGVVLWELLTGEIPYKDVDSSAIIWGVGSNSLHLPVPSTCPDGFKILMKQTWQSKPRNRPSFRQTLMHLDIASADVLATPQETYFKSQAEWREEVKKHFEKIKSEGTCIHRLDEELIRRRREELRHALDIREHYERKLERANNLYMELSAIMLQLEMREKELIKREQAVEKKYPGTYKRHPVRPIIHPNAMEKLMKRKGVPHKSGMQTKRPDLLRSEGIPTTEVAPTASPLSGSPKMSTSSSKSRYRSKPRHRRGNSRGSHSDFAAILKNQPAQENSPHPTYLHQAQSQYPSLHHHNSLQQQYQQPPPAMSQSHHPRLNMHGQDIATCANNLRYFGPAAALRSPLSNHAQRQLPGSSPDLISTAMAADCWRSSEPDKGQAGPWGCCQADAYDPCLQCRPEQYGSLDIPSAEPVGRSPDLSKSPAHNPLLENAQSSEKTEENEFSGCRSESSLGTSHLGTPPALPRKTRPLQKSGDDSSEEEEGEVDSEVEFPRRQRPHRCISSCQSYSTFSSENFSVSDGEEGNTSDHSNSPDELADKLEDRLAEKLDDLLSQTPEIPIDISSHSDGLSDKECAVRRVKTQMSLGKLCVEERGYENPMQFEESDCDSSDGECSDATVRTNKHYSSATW", "assay": "KINOMEscan", "format": "binding", "conditions": "1 μM of compound 4; read-out: POC"}, "[1]": {"tested_on": "EGFR (delE746-A750) in HCC827 cells", "assay": "Western blotting of EGFR phosphorylation", "format": "cell-based, human", "conditions": "6 hours treatment", "protocol": "FIG. 2. […] All experiments performed after 6 hours treatments of inhibitors or DMSO controls and Western blots are representative of at least three independent experiments.\nWestern blotting. Cells were collected and lysed with lysis buffer (5M NaCl, 1M TRIS pH 8.0, 10% SDS, 10% Triton X-100 and a tablet of protease inhibitors) and processed for Western blotting analysis. Primary antibodies used; phospho-EGFR (Tyr1068; #2234, 1:1,000), EGFR (#4267; 1:1,000), phospho-AKT (Ser473; #4060, 1:1,000), AKT (#9272, 1:1,000), phospho-ERK1/2 (Thr202/Tyr204; #4370, 1:1,000), and ERK1/2 (#4695, 1:1,000) antibodies; were purchased from Cell Signaling Technology. Secondary Goat anti-rabbit IgG starbright blue 700 and Anti-tubulin hFAB Rhodamine Tubulin were purchased from Bio-rad."}, "EPHA4": {"target": "T2, EPHA4 (Homo sapiens, UniProt P54764)", "T2 construct": "purchased Eurofins DiscoverX (KINOMEscan service)", "assay": "KINOMEscan", "format": "binding", "conditions": "1 μM of compound 4; read-out: POC"}, "VRK2": {"target": "T3, VRK2 (Homo sapiens, UniProt Q86Y07)", "T3 construct": "purchased Eurofins DiscoverX", "assay": "KINOMEscan", "format": "binding", "conditions": "1 μM of compound 4; read-out: POC"}, "CDK4-cyclinD3": {"target": "CDK4-cyclinD3 (Homo sapiens, UniProt P11802)", "assay": "KINOMEscan", "format": "binding", "conditions": "1 μM of compound 4; read-out: POC"}, "PRKCH": {"target": "PRKCH (Homo sapiens, UniProt P24723)", "assay": "KINOMEscan", "format": "binding", "conditions": "1 μM of compound 4; read-out: POC"}, "MKK7": {"target": "MKK7 (Homo sapiens, UniProt O14733)", "sequence (O14733 whole entry)": "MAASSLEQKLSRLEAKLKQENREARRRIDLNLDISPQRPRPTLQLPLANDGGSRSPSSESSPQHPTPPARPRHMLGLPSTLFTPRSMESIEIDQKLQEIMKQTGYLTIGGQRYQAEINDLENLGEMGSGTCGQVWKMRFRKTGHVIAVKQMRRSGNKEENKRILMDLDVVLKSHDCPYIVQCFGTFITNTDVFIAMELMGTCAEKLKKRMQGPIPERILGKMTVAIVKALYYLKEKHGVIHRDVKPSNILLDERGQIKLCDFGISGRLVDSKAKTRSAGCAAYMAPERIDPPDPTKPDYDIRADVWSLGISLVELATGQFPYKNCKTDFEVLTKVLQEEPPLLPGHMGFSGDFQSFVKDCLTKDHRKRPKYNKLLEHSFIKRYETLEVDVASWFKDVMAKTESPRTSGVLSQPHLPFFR", "assay": "KINOMEscan", "format": "binding", "conditions": "1 μM of compound 4; read-out: POC"}, "IRAK4": {"target": "IRAK4 (Homo sapiens, UniProt Q9NWZ3)", "assay": "KINOMEscan", "format": "binding", "conditions": "1 μM of compound 4; read-out: POC"}, "[2]": {"target": "T4, ABL1(T315I)-nonphosphorylated (Homo sapiens, UniProt P00519, T315I)", "T4 construct": "purchased Eurofins DiscoverX Corporation", "assay": "KINOMEscan", "format": "binding", "conditions": "1 μM of compound 4; read-out: POC"}, "ADCK3": {"target": "ADCK3 (Homo sapiens, UniProt Q8NI60)", "sequence (Q8NI60 163-647)": "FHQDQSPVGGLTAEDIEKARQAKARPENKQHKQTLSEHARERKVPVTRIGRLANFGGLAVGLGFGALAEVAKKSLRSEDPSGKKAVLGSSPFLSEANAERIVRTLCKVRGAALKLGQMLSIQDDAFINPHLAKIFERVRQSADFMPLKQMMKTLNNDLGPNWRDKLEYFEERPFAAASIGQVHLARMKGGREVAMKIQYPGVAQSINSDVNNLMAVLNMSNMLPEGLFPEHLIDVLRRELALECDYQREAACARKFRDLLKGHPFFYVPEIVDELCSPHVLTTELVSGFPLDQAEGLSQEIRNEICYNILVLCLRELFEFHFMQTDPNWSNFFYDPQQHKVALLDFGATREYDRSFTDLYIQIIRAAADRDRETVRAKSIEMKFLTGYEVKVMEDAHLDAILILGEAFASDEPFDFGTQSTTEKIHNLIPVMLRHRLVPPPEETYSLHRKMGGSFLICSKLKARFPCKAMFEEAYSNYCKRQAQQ", "assay": "KINOMEscan", "format": "binding", "conditions": "1 μM of compound 4; read-out: POC"}, "PRKCE": {"target": "PRKCE (Homo sapiens, UniProt Q02156)", "sequence (Q02156 whole entry)": "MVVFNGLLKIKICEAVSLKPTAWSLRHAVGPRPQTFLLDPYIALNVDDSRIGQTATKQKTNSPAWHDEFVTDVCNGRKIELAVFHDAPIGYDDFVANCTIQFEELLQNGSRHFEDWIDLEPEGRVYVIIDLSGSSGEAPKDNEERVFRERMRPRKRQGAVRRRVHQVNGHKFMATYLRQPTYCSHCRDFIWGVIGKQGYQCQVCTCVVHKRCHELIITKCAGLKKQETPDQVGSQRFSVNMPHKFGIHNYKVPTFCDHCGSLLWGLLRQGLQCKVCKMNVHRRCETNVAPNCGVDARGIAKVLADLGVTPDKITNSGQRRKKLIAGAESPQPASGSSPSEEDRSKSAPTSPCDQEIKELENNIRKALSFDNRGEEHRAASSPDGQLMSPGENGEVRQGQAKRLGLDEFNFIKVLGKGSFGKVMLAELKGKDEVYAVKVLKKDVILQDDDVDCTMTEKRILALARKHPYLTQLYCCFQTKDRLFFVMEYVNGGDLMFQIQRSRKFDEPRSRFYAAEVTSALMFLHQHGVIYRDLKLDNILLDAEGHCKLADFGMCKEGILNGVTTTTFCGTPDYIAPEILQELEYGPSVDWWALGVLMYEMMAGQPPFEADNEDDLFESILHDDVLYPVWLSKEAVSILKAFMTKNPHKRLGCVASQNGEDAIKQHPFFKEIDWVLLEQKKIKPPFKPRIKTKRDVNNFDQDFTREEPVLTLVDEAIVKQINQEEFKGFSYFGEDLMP", "assay": "KINOMEscan", "format": "binding", "conditions": "1 μM of compound 4; read-out: POC"}, "ERBB2": {"target": "T5, ERBB2 (Homo sapiens, UniProt P04626)", "T5 construct": "purchased Eurofins DiscoverX Corporation", "assay": "KINOMEscan", "format": "binding", "conditions": "1 μM of compound 4; read-out: POC"}, "SRPK1": {"target": "T6, SRPK1 (Homo sapiens, UniProt Q96SB4)", "T6 construct": "purchased Eurofins DiscoverX (KINOMEscan service)", "assay": "KINOMEscan", "format": "binding", "conditions": "1 μM of compound 4; read-out: POC"}, "EGFR(G719S)": {"target": "T7, EGFR(G719S) (Homo sapiens, UniProt P00533, G719S)", "T7 construct": "purchased Eurofins DiscoverX (KINOMEscan service)", "assay": "KINOMEscan", "format": "binding", "conditions": "1 μM of compound 4; read-out: POC"}, "ULK3": {"target": "T8, ULK3 (Homo sapiens, UniProt Q6PHR2)", "T8 construct": "purchased Eurofins DiscoverX", "assay": "KINOMEscan", "format": "binding", "conditions": "1 μM of compound 4; read-out: POC"}, "PKNB(M. tuberculosis)": {"target": "PKNB(M. tuberculosis) (Mycobacterium tuberculosis, UniProt P9WI81)", "sequence (P9WI81 whole entry)": "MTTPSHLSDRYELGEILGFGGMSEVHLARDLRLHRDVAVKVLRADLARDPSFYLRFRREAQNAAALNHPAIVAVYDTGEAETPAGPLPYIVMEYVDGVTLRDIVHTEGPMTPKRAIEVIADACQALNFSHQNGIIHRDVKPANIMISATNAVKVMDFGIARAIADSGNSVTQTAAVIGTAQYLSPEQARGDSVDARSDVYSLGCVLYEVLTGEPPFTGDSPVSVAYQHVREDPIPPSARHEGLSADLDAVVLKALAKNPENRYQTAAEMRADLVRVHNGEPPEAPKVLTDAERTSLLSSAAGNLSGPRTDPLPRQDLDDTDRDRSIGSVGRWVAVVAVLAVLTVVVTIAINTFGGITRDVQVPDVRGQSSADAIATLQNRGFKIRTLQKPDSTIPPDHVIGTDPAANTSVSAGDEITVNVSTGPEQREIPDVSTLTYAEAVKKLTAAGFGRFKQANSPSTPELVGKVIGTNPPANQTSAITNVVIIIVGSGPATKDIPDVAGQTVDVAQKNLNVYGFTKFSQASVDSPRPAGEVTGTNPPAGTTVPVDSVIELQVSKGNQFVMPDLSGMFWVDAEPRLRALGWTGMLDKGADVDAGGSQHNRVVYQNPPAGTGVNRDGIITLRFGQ", "assay": "KINOMEscan", "format": "binding", "conditions": "1 μM of compound 4; read-out: POC"}, "CDK11": {"target": "CDK11 (Homo sapiens, UniProt Q9BWU1)", "assay": "KINOMEscan", "format": "binding", "conditions": "1 μM of compound 4; read-out: POC"}, "CLK3": {"target": "CLK3 (Homo sapiens, UniProt P49761)", "sequence (P49761 whole entry)": "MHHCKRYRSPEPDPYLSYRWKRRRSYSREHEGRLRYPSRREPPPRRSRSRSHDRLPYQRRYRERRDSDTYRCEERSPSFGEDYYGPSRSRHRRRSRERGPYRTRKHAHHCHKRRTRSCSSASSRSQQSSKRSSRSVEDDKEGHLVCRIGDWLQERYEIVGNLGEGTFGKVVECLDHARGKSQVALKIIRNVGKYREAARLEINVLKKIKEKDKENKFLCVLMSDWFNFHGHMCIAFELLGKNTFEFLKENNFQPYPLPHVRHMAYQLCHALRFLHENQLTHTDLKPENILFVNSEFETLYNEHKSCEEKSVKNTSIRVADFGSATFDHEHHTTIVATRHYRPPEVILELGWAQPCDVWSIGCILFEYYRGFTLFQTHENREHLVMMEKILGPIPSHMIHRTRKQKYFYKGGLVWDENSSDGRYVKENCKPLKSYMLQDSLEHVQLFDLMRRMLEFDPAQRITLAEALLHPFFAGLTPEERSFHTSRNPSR", "assay": "KINOMEscan", "format": "binding", "conditions": "1 μM of compound 4; read-out: POC"}, "FLT3(K663Q)": {"target": "T9, FLT3(K663Q) (Homo sapiens, UniProt P36888, K663Q)", "T9 construct": "purchased Eurofins DiscoverX Corporation", "assay": "KINOMEscan", "format": "binding", "conditions": "1 μM of compound 4; read-out: POC"}, "BLK": {"target": "BLK (Homo sapiens, UniProt P51451)", "sequence (P51451 whole entry)": "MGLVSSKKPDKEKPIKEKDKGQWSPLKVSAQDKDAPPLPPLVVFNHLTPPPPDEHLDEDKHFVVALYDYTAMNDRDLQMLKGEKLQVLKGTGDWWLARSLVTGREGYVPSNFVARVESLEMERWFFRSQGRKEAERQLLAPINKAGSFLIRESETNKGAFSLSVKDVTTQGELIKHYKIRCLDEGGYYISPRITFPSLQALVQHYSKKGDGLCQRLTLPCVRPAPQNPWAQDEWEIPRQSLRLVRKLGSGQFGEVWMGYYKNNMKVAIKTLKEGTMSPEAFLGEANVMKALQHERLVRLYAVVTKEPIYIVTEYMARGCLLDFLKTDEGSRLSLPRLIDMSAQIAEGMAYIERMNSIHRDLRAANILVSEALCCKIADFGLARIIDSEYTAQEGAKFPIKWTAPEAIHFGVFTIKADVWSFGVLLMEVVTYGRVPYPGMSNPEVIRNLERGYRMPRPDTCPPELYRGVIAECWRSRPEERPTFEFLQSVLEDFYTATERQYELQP", "assay": "KINOMEscan", "format": "binding", "conditions": "1 μM of compound 4; read-out: POC"}, "QSK": {"target": "T10, QSK (Homo sapiens, UniProt Q9Y2K2)", "T10 construct": "purchased Eurofins DiscoverX Corporation (KINOMEscan screening service)", "assay": "KINOMEscan", "format": "binding", "conditions": "1 μM of compound 4; read-out: POC"}, "STK35": {"target": "T11, STK35 (Homo sapiens, UniProt Q8TDR2)", "T11 construct": "purchased Eurofins DiscoverX (KINOMEscan service)", "assay": "KINOMEscan", "format": "binding", "conditions": "1 μM of compound 4; read-out: POC"}, "SRC": {"target": "T12, SRC (Homo sapiens, UniProt P12931)", "T12 construct": "purchased Eurofins DiscoverX (KINOMEscan service)", "assay": "KINOMEscan", "format": "binding", "conditions": "1 μM of compound 4; read-out: POC"}, "NIK": {"target": "T13, NIK (Homo sapiens, UniProt Q99558)", "T13 construct": "purchased Eurofins DiscoverX Corporation (KINOMEscan)", "assay": "KINOMEscan", "format": "binding", "conditions": "1 μM of compound 4; read-out: POC"}, "LATS2": {"target": "LATS2 (Homo sapiens, UniProt Q9NRM7)", "assay": "KINOMEscan", "format": "binding", "conditions": "1 μM of compound 4; read-out: POC"}, "PLK2": {"target": "PLK2 (Homo sapiens, UniProt Q9NYY3)", "assay": "KINOMEscan", "format": "binding", "conditions": "1 μM of compound 4; read-out: POC"}, "HIPK3": {"target": "T14, HIPK3 (Homo sapiens, UniProt Q9H422)", "T14 construct": "purchased Eurofins DiscoverX Corporation", "assay": "KINOMEscan", "format": "binding", "conditions": "1 μM of compound 4; read-out: POC"}, "PHKG1": {"target": "PHKG1 (Homo sapiens, UniProt Q16816)", "sequence (Q16816 whole entry)": "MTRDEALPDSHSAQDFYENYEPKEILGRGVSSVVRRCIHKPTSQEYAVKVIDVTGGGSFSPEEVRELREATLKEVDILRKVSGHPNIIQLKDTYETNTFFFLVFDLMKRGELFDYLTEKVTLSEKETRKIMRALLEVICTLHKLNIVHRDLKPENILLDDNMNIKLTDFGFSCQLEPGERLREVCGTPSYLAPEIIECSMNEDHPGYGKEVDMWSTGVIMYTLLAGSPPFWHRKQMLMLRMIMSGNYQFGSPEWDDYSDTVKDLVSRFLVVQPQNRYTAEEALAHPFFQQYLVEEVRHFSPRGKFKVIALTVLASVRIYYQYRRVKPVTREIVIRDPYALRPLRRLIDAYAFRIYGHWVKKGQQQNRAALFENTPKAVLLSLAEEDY", "assay": "KINOMEscan", "format": "binding", "conditions": "1 μM of compound 4; read-out: POC"}, "KIT(D816V)": {"target": "KIT(D816V) (Homo sapiens, UniProt P10721, D816V)", "assay": "KINOMEscan", "format": "binding", "conditions": "1 μM of compound 4; read-out: POC"}, "[3]": {"target": "T15, ABL1(Q252H)-phosphorylated (Homo sapiens, UniProt P00519, Q252H)", "T15 construct": "purchased Eurofins DiscoverX Corporation", "assay": "KINOMEscan", "format": "binding", "conditions": "1 μM of compound 4; read-out: POC"}, "TGFBR1": {"target": "T16, TGFBR1 (Homo sapiens, UniProt P36897)", "T16 construct": "purchased Eurofins DiscoverX Corporation", "assay": "KINOMEscan", "format": "binding", "conditions": "1 μM of compound 4; read-out: POC"}, "CAMK2B": {"target": "CAMK2B (Homo sapiens, UniProt Q13554)", "assay": "KINOMEscan", "format": "binding", "conditions": "1 μM of compound 4; read-out: POC"}},
  "note": "Entries after “also recorded” stand apart in the source; their conditions may differ.",
  "data": [
    {"compound": "C=CC(=O)Nc1ccc(OC)c(Nc2cc(-c3[nH]c(CC)nc3-c3cccc(NC(=O)c4cccc5c4NC(=O)c4ccccc4N5)c3)ccn2)c1", "note": "[Compound 4, N-(3-(5-(2-((5-Acrylamido-2-methoxyphenyl)amino)pyridin-4-yl)-2-ethyl-1H-imidazol-4-yl)phenyl)-11-oxo-10,11-dihydro-5H-dibenzo[b,e][1,4]diazepine-9-carboxamide]", "values": [
      {"measurement": "remaining binding at 1 µM", "setting": "ABL2", "result": 92, "unit": "%"},
      {"measurement": "remaining binding at 1 µM", "setting": "CDKL1", "result": 100, "unit": "%"},
      {"measurement": "remaining binding at 1 µM", "setting": "LZK", "result": 90, "unit": "%"},
      {"measurement": "EGFR phosphorylation (Western blot)", "setting": "[1]", "result": "similarly active; also recorded: effectively ablates EGFR (delE746-A750) phosphorylation"},
      {"measurement": "remaining binding at 1 µM", "setting": "EPHA4", "result": 95, "unit": "%"},
      {"measurement": "remaining binding at 1 µM", "setting": "VRK2", "result": 100, "unit": "%"},
      {"measurement": "remaining binding at 1 µM", "setting": "CDK4-cyclinD3", "result": 49, "unit": "%"},
      {"measurement": "remaining binding at 1 µM", "setting": "PRKCH", "result": 69, "unit": "%"},
      {"measurement": "remaining binding at 1 µM", "setting": "MKK7", "result": 31, "unit": "%"},
      {"measurement": "remaining binding at 1 µM", "setting": "IRAK4", "result": 43, "unit": "%"},
      {"measurement": "remaining binding at 1 µM", "setting": "[2]", "result": 98, "unit": "%"},
      {"measurement": "remaining binding at 1 µM", "setting": "ADCK3", "result": 100, "unit": "%"},
      {"measurement": "remaining binding at 1 µM", "setting": "PRKCE", "result": 100, "unit": "%"},
      {"measurement": "remaining binding at 1 µM", "setting": "ERBB2", "result": 18, "unit": "%"},
      {"measurement": "remaining binding at 1 µM", "setting": "SRPK1", "result": 100, "unit": "%"},
      {"measurement": "remaining binding at 1 µM", "setting": "EGFR(G719S)", "result": 13, "unit": "%"},
      {"measurement": "remaining binding at 1 µM", "setting": "ULK3", "result": 100, "unit": "%"},
      {"measurement": "remaining binding at 1 µM", "setting": "PKNB(M. tuberculosis)", "result": 97, "unit": "%"},
      {"measurement": "remaining binding at 1 µM", "setting": "CDK11", "result": 100, "unit": "%"},
      {"measurement": "remaining binding at 1 µM", "setting": "CLK3", "result": 74, "unit": "%"},
      {"measurement": "remaining binding at 1 µM", "setting": "FLT3(K663Q)", "result": 87, "unit": "%"},
      {"measurement": "remaining binding at 1 µM", "setting": "BLK", "result": 1.7, "unit": "%"},
      {"measurement": "remaining binding at 1 µM", "setting": "QSK", "result": 100, "unit": "%"},
      {"measurement": "remaining binding at 1 µM", "setting": "STK35", "result": 69, "unit": "%"},
      {"measurement": "remaining binding at 1 µM", "setting": "SRC", "result": 73, "unit": "%"},
      {"measurement": "remaining binding at 1 µM", "setting": "NIK", "result": 100, "unit": "%"},
      {"measurement": "remaining binding at 1 µM", "setting": "LATS2", "result": 62, "unit": "%"},
      {"measurement": "remaining binding at 1 µM", "setting": "PLK2", "result": 100, "unit": "%"},
      {"measurement": "remaining binding at 1 µM", "setting": "HIPK3", "result": 100, "unit": "%"},
      {"measurement": "remaining binding at 1 µM", "setting": "PHKG1", "result": 96, "unit": "%"},
      {"measurement": "remaining binding at 1 µM", "setting": "KIT(D816V)", "result": 94, "unit": "%"},
      {"measurement": "remaining binding at 1 µM", "setting": "[3]", "result": 90, "unit": "%"},
      {"measurement": "remaining binding at 1 µM", "setting": "TGFBR1", "result": 75, "unit": "%"},
      {"measurement": "remaining binding at 1 µM", "setting": "CAMK2B", "result": 72, "unit": "%"}
    ]}
  ]
}
